N#CCC(N)=O
solubility (mole fraction)
Settings | 273.15 K | 278.15 K | 283.15 K | 288.15 K | 293.15 K | 298.15 K | 303.15 K | 308.15 K | 313.15 K | 318.15 K
in 1,4-dioxane | – | – | – | 0.0127 | 0.0155 | 0.0186 | 0.0226 | 0.0278 | 0.0342 | 0.0407
in DMF | 0.254 | 0.262 | 0.271 | 0.283 | 0.295 | 0.309 | 0.325 | 0.343 | 0.36 | 0.382
in THF | 0.00988 | 0.0112 | 0.0128 | 0.0145 | 0.0164 | 0.0187 | 0.0209 | 0.0236 | 0.0268 | 0.0301
in acetone | 0.0248 | 0.0286 | 0.0335 | 0.039 | 0.0453 | 0.0527 | 0.0612 | 0.0712 | 0.0833 | 0.0956
in acetonitrile | 0.0154 | 0.0187 | 0.0232 | 0.0272 | 0.0329 | 0.0389 | 0.0469 | 0.0553 | 0.0671 | 0.0795
in chloroform | 0.000389 | 0.000465 | 0.000562 | 0.000678 | 0.000821 | 0.000985 | 0.00119 | 0.00143 | 0.00173 | 0.00208
in dichloromethane | 0.000321 | 0.000388 | 0.000471 | 0.000559 | 0.000668 | 0.000792 | 0.000931 | 0.00112 | – | –
in ethanol | 0.00455 | 0.00558 | 0.00681 | 0.0087 | 0.0105 | 0.0129 | 0.0157 | 0.0188 | 0.0229 | 0.0277
in ethyl acetate | 0.0043 | 0.00509 | 0.00602 | 0.00694 | 0.00829 | 0.00951 | 0.011 | 0.0128 | 0.0149 | 0.017
in methanol | 0.0126 | 0.0156 | 0.0186 | 0.0227 | 0.0273 | 0.0332 | 0.04 | 0.0482 | 0.0558 | 0.0674
in methyl acetate | 0.0115 | 0.0137 | 0.0163 | 0.0195 | 0.0228 | 0.0263 | 0.0307 | 0.0355 | 0.0408 | 0.0467
in n-butanol | 0.00201 | 0.00246 | 0.00298 | 0.00377 | 0.00456 | 0.0055 | 0.00667 | 0.00797 | 0.00982 | 0.0119
in n-propanol | 0.0022 | 0.00274 | 0.00355 | 0.00461 | 0.00591 | 0.00755 | 0.00935 | 0.0117 | 0.0147 | 0.0182
in water | – | 0.0136 | 0.0179 | 0.0233 | 0.0313 | 0.0405 | 0.0519 | 0.0674 | 0.0887 | 0.114
